According to ChEMBL document CHEMBL1157218, “Cycloviolacin H4, a hydrophobic cyclotide from Viola hederaceae” (J Nat Prod, 2006):
Bridge positions count the residues as written; N and C are the ends. Peptide text beside a SMILES is read from it.

What was measured:
[1] = Toxicity against human type A red blood cells assessed as hemolytic activity after 1hr; type: cell-based, Erythrocyte; details: read-out: HD50
[2] = Toxicity against human type A red blood cells assessed as hemolytic activity at 80 uM after 1 ht; type: cell-based, Erythrocyte; details: read-out: Activity

Structure (SMILES) | HC50 at 1 h [1] [µM] | hemolysis at 1 h, 80 µM [2] [%]
CC[C@H](C)[C@@H]1NC(=O)CNC(=O)[C@H](CC(N)=O)NC(=O)[C@H](Cc2ccc(O)cc2)NC(=O)[C@@H]2CSSC[C@@H]3NC(=O)[C@@H]4CCCN4C(=O)[C@H]([C@@H](C)CC)NC(=O)[C@H](Cc4c[nH]c5ccccc45)NC(=O)[C@H](C(C)C)NC(=O)[C@@H]4CSSC[C@H](NC(=O)[C@H](CO)NC(=O)[C@H](CSSC[C@H](NC(=O)[C@@H]5CCCN5C1=O)C(=O)N[C@@H](C)C(=O)N[C@@H](CCC(=O)O)C(=O)N[C@@H](CO)C(=O)N4)NC(=O)CNC(=O)[C@H](CC(C)C)NC(=O)[C@H](CC(C)C)NC(=O)[C@H](C)NC(=O)[C@H]([C@@H](C)O)NC(=O)[C@H](C(C)C)NC(=O)[C@H]([C@@H](C)O)NC3=O)C(=O)N[C@@H](CO)C(=O)N[C@@H](CC(N)=O)C(=O)N[C@@H](CC(N)=O)C(=O)N[C@@H](C(C)C)C(=O)N2 [cycloviolacin H4] (cyclo(AESCVWIPCTVTALLGCSCSNNVCYNGIPC); disulfide 4-19, 9-24, 17-30) | 5.5 | –
CC[C@H](C)[C@@H]1NC(=O)[C@H]([C@@H](C)O)NC(=O)CNC(=O)CNC(=O)[C@H](CC(N)=O)NC(=O)[C@H]([C@@H](C)O)NC(=O)CNC(=O)[C@H](Cc2ccc(O)cc2)NC(=O)[C@@H]2CSSC[C@@H]3NC(=O)[C@H]([C@@H](C)O)NC(=O)CNC(=O)[C@H](CC(C)C)NC(=O)[C@H](Cc4ccccc4)NC(=O)[C@@H]4CSSC[C@H](NC(=O)[C@H](CO)NC(=O)[C@H](CSSC[C@H](NC(=O)[C@H](CC(=O)O)NC(=O)[C@H](Cc5ccccc5)NC1=O)C(=O)NCC(=O)N[C@@H](CCC(=O)O)C(=O)N[C@@H](CO)C(=O)N4)NC(=O)CNC(=O)[C@H](CCCCN)NC(=O)[C@H]([C@@H](C)O)NC(=O)[C@H](Cc1ccc(O)cc1)NC3=O)C(=O)NCC(=O)N[C@@H](CCC(=O)O)C(=O)N[C@@H](Cc1c[nH]c3ccccc13)C(=O)N[C@@H](CCCCN)C(=O)N[C@@H](CC(C)C)C(=O)N2 [TRICYCLON A] (cyclo(CFLGTCYTKGCSCGEWKLCYGTNGGTIFDCGES); disulfide 1-13, 6-19, 11-30) | – | 2
CC(C)C[C@@H]1NC(=O)CNC(=O)[C@H](CC(N)=O)NC(=O)[C@H](CCCNC(=N)N)NC(=O)[C@H]([C@@H](C)O)NC(=O)[C@@H]2CSSC[C@@H]3NC(=O)[C@H]([C@@H](C)O)NC(=O)CNC(=O)CNC(=O)[C@H](C(C)C)NC(=O)[C@@H]4CSSC[C@H](NC(=O)[C@H]([C@@H](C)O)NC(=O)[C@H](CSSC[C@H](NC(=O)[C@H](C(C)C)NC(=O)[C@@H]5CCCN5C1=O)C(=O)NCC(=O)N[C@@H](CCC(=O)O)C(=O)N[C@@H]([C@@H](C)O)C(=O)N4)NC(=O)CNC(=O)[C@@H]1CCCN1C(=O)[C@H]([C@@H](C)O)NC(=O)[C@H](CC(N)=O)NC3=O)C(=O)N[C@@H](CO)C(=O)N[C@@H](Cc1c[nH]c3ccccc13)C(=O)N1CCC[C@H]1C(=O)N[C@@H](C(C)C)C(=O)N2 [KALATA B1] | 12.7 | –
